This note sets out measurements from ChEMBL document CHEMBL1201862, “PubChem BioAssay data set” (2004).

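Briefly, cells in 96-well plates were exposed to five compound concentrations for 48 h, and endpoints were estimated by linear interpolation. Abbreviation: GI50, concentration required for 50% inhibition of growth.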 The source made the active and inactive calls. Rule as the data show it: active = GI50 up to about 1.1 µM and inactive = higher. A value given as a limit tells only on which side of the number the result lay.

What all share (assay): inhibition of tumour cell growth, NCI panel, 48 h
In assay [1] the test system is UACC-62.
The test system of assay [2] is HCT-15.
Assay [3] has as its system K562.
For assay [4], the system named is CAKI-1.
Assay [5] deals with NCI-H23.
The test system of assay [6] is SF-268.
The test system of assay [7] is MOLT-4.
Assay [8] concerns HCT-116.
In assay [9] the test system is SW-620.
Assay [10] deals with NCI-H460.
The subject of assay [11] is SN12C.
For assay [12], the system named is OVCAR-5.
The test system of assay [13] is KM12.
In assay [14] the test system is SNB-19.
The test system of assay [15] is HCC 2998.
Assay [16] has as its system HL-60.
In assay [17] the test system is RPMI-8226.
The test system of assay [18] is NCI/ADR-RES.
Assay [19] deals with UACC-257.
Assay [20] concerns HOP-92.

`COc1cc([N+](=O)[O-])c(S(=O)(=O)[O-])cc1-[n+]1nc(C(=O)Nc2ccccc2)nn1-c1ccc([N+](=O)[O-])c(S(=O)(=O)O)c1`: the GI50 in [1] was > 100 µM (inactive); in assay [2], above 100 µM; in assay [3], > 100 µM (inactive); in [4] it was > 100 µM (inactive); in assay [5], > 100 µM (inactive); in assay [6], > 100 µM (inactive). The GI50 in assay [7], in assay [8], in assay [9], in assay [10], in assay [11] and in assay [12] was > 100 µM (inactive) in each case. For the same compound, the GI50 in assay [13] is > 100 µM (inactive); in assay [14], > 100 µM (inactive); in assay [15] it was > 100 µM (inactive); in assay [16], 84.7 µM (inactive); in [17], > 100 µM (inactive); in assay [18], > 100 µM (inactive).

In the case of `CC[C@]1(Cc2ccc(OC)c(OC)c2)[C@@H]2C[C@@H](C3OCCO3)ON2O[C@H](OC2CCCC2(c2ccccc2)c2ccccc2)[C@@H]1OC(C)=O` (stereo not given in full), the GI50 is 37.4 µM (inactive) in [1]; 14.5 µM in assay [2]; 17.7 µM (inactive) in assay [3]; 32.8 µM (inactive) in assay [4]; 21 µM (inactive) in [5]; 19.9 µM (inactive) in assay [6]. The GI50 was 10.1 µM (inactive) in assay [7]; 17.4 µM (inactive) in [8]; 33 µM (inactive) in assay [9]; 16.1 µM (inactive) in assay [10]; 31.3 µM (inactive) in assay [11]; 17.9 µM (inactive) in [12]. The GI50 in [13] is 15.6 µM (inactive); in assay [14], 18.1 µM (inactive); in [19], 19.6 µM (inactive); in assay [18], 28.9 µM (inactive).

Turning to `CC(=O)CN/C(C)=N/Nc1ccc([N+](=O)[O-])cc1[N+](=O)[O-]`, the GI50 in [1] is 80.9 µM (inactive); in assay [2] it was above 100 µM; in assay [3], 5.2 µM (inactive); in assay [4], 15.3 µM (inactive); in assay [5] it was > 100 µM (inactive); in assay [6], > 100 µM (inactive). The GI50 in assay [7], in assay [8], in assay [9], in assay [10], in assay [11] and in [12] was > 100 µM (inactive) throughout. The GI50 in [14], in [15], in assay [17] and in [18] was > 100 µM (inactive) throughout.

Regarding `Cc1cc(C2(O)C=C(C(C)(C)C)C(=O)C(C(C)(C)C)=C2)c(C)cc1C1(O)C=C(C(C)(C)C)C(=O)C(C(C)(C)C)=C1`, the GI50 is > 100 µM (inactive) in [1]; above 100 µM in [2]; > 100 µM (inactive) in [3]; > 100 µM (inactive) in assay [4]; > 100 µM (inactive) in assay [5]; > 100 µM (inactive) in [6]. Moreover, the GI50 in [7], in [8], in [9], in assay [11], in [12] and in assay [13] was > 100 µM (inactive) in each case. For the same compound, the GI50 in [14], in [19], in [16], in [17] and in assay [18] was > 100 µM (inactive) in each case.

Take `COC(=O)/C=C(\S/C(=C(/c1ccc(OC)cc1)n1cc(C(=O)OC)c(C(=O)OC)n1)c1ccc(OC)cc1)C(=O)OC`: the GI50 in [1] was 34.9 µM (inactive); in assay [2] it was 6.43 µM; in assay [3], 6.5 µM (inactive); in assay [4], 2.58 µM (inactive); in assay [5] it was 37.2 µM (inactive); in assay [6] it was 17.1 µM (inactive). Moreover, the GI50 was 2.78 µM (inactive) in assay [7]; 9.98 µM (inactive) in assay [8]; 7.06 µM (inactive) in assay [9]; 35.9 µM (inactive) in assay [10]; 15.5 µM (inactive) in assay [11]; 27.1 µM (inactive) in assay [12]. Further, the GI50 in assay [13] was 76.2 µM (inactive); in [14], 51.8 µM (inactive); in assay [19], 8.49 µM (inactive); in assay [16], 2.7 µM (inactive); in [17] it was 38.3 µM (inactive); in assay [18], 28.7 µM (inactive).

In the case of `O=C(NNC(=O)c1cc2ccccc2[nH]1)c1cc2ccccc2[nH]1`, the GI50 in assay [1] is > 100 µM (inactive); in [2], above 100 µM; in assay [3] it was 80 µM (inactive); in [4] it was > 100 µM (inactive); in [6], > 100 µM (inactive); in [7], > 100 µM (inactive). Moreover, the GI50 in [8], in [9], in assay [10], in [11], in [12] and in assay [13] was > 100 µM (inactive) each time. For the same compound, the GI50 was > 100 µM (inactive) in assay [14]; > 100 µM (inactive) in assay [19]; 95.7 µM (inactive) in assay [16]; > 100 µM (inactive) in assay [17]; > 100 µM (inactive) in [18].

Take `O=C(NCCCC/N=c1/cccccc1NCCCCNC(=O)OCc1ccccc1)OCc1ccccc1`: the GI50 in assay [1] was 19.4 µM (inactive); in assay [2] it was 8.05 µM; in [20], 3.14 µM (inactive); in assay [3], 10.1 µM (inactive); in assay [4] it was 20.9 µM (inactive); in assay [5] it was 19.3 µM (inactive). Moreover, the GI50 was 25.6 µM (inactive) in assay [6]; 15.3 µM (inactive) in assay [7]; 9.98 µM (inactive) in [8]; 17 µM (inactive) in [9]; 11.5 µM (inactive) in [10]; 18.8 µM (inactive) in assay [11]. In addition, the GI50 in assay [12] was 17.1 µM (inactive); in assay [13] it was 17.9 µM (inactive); in [14], 23.8 µM (inactive); in assay [19], 15.2 µM (inactive); in assay [15], 15.7 µM (inactive); in assay [16], 13.2 µM (inactive). Further, the GI50 in assay [17] was 13 µM (inactive).

Turning to `CCCCCCCCC(=O)NCCCNCCCNC(=O)CCCCCCCC`, the GI50 was 5.79 µM (inactive) in assay [1]; 14.7 µM in assay [2]; 3.85 µM (inactive) in assay [20]; 2.18 µM (inactive) in assay [3]; 13 µM (inactive) in assay [4]; 15.7 µM (inactive) in [5]. Also, the GI50 in assay [6] was 10.2 µM (inactive); in assay [7], 3.4 µM (inactive); in assay [8], 5.04 µM (inactive); in [9] it was 2.54 µM (inactive); in assay [10], 2.54 µM (inactive); in assay [11] it was 6.19 µM (inactive). The GI50 in [12] was 15.2 µM (inactive); in [13], 2.01 µM (inactive); in assay [14], 19.1 µM (inactive); in assay [19], 7.1 µM (inactive); in assay [15] it was 2.84 µM (inactive); in assay [16], 2.11 µM (inactive). Further, the GI50 in [17] is 3.23 µM (inactive).
